Results from paper PMC5983452 (PLoS ONE, 2018).
Like-named read-outs stand apart in the source and are kept apart here. Values belong to the molecule of their own block, whether it stands above or below them.

Tests used:
SMYD2 [1] = biological target: T1, SMYD2 (Homo sapiens, UniProt Q9NRG4); assay: Intracellular BTF3 monomethylation (BTF3me1) western blot; format: cell-based; parameters: endogenous in cells; host or cells: 313 cancer cell lines; settings: read-out: Intracellular Methylation IC50
Procedure: Cells were lysed in 1X RIPA Buffer containing 10% SDS and Halt™ Protease Inhibitor Cocktail (Thermo Fisher Scientific) and incubated on ice for 30 minutes before sonication (Amplitude 20%/10sec) twice. Lysates were spun at […] at 4°C for 10min and normalized for protein concentration by BCA assay (Thermo Fisher Scientific). […] Blots were imaged using the Odyssey Imaging System (LICOR Biosciences). […] BTF3me1 is a custom generated polyclonal antibody, affinity purified from serum of rabbits injected with adjuvant conjugated peptide corresponding to methylated K1 of BTF3 (K(Me)-[…]).
SMYD2 catalyzes the methylation of lysine residues on several proteins, including BTF3 [40].

SMYD2 [2] = biological target: T1, SMYD2; assay: SMYD2 biochemical methylation assay (3H-SAM, H3,1–29 peptide, flashplate); parameters: Full length FLAG-SMYD2 and C-terminally Avi-tagged full length SMYD2 (SMYD2-Avi) were cloned into pFastbac vectors; FLAG (N); His tag with TEV cleavage site (N, cleaved yes); made in house; host or cells: Sf9 insect cells (baculovirus)
Procedure: Full length FLAG-SMYD2 and C-terminally Avi-tagged full length SMYD2 (SMYD2-Avi) were cloned into pFastbac vectors containing an N-terminal His tag with TEV cleavage site. Virus production was performed using standard protocols and the proteins were coexpressed in either Sf9 (SMYD2) or Hi Five (SMYD2-Avi) cells. After harvest by centrifugation, cell pellets for both proteins were resuspended, sonicated, and then centrifuged to remove cell debris. Protein was purified using nickel affinity chromatography before and after TEV cleavage in a similar fashion as SMYD3. […] SMYD2-Avi was biotinylated using His-tagged BirA enzyme after dialysis into a low salt buffer and the BirA was removed with a final nickel affinity column. […] SMYD3 assays were performed as previously described using N-terminally GST-tagged MAP3K2 protein substrate. […] Reactions were conducted at room temperature with enzyme and inhibitor incubated for 30 minutes before initiating the reaction with substrates. Dose-response curves were tested in duplicate in each experiment. […] Quenched reactions were transferred to a streptavidin-coated flashplate (Perkin Elmer) for capture of the biotinylated peptide. After 2 h incubation at room temperature, the flashplate was washed once with 0.1% Tween-20 and read on a Perkin Elmer Topcount NXT plate reader. Substrate apparent KM values were determined by measuring the initial velocities (v0) in duplicate while varying one substrate at fixed concentration of the second substrate. […] Percent inhibition by compound (% inh) was calculated from Eq 3 %inh=(1-([…] the signal in the presence of compound and max and min are the signals for the DMSO and background controls respectively. […] Mechanism of inhibition was determined by measuring the inhibitor IC50 values while varying the concentration of one substrate at a fixed concentration of the second substrate equal to its KM value. The inhibition constant Ki was calculated from fitting the IC50 versus varied substrate concentration data using the Cheng-Prusoff equations for mixed-type and noncompetitive inhibition below. α is the coefficient accounting for differences in inhibitor affinity between binding enzyme forms after versus before substrate binding.

KYSE-150 = assay: Cell proliferation, KYSE-150; format: cell-based; settings: Homo sapiens, read-out: Cellular Proliferation IC50
Procedure: (§1) Cell lines used in these experiments were obtained from the following sources and were cultured according to conditions specified by the respective cell banks. […] The cell lines listed above were tested for mycoplasma and were negative. Cells were authenticated by STR method or vendor protocols. All 313 cell lines in the CRIPSR pooled screen were purchased from commercial vendors and were STR authenticated and mycoplasma negative. A broad panel of cancer cell lines was screened in the Eurofins Oncopanel. All cells in this panel were mycoplasma negative and STR verified.
Thus, 5 compounds representing 4 distinct pharmacophore series of SMYD2 inhibitors are now available for testing the dependence of cancer lines on SMYD2 activity. […] In stark contrast, however, no correlation is seen between the potency for BTF3 methylation inhibition and anti-proliferative activity among these compounds (Fig 3B).

[3] = tested on: cell lines found to be sensitive to LLY-507; settings: cited from earlier work
several cell lines = settings: cited from earlier work
SMYD3 [4] = biological target: T2, SMYD3 (Homo sapiens, UniProt Q9H7B4); settings: read-out: Kd for binding to SMYD3; cited from earlier work
T2 sequence (Q9H7B4 1-428): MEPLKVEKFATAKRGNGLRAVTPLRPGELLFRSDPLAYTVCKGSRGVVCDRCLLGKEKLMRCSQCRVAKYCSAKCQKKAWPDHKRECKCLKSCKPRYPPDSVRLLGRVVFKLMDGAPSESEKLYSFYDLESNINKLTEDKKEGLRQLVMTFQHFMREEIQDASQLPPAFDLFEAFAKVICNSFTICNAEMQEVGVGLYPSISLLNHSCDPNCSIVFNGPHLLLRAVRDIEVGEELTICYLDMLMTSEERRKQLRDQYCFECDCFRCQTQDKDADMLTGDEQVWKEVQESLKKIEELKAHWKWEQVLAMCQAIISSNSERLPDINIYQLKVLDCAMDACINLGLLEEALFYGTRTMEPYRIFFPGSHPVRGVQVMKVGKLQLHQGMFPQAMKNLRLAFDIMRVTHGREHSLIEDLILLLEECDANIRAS

SMYD3 [5] = biological target: T2, SMYD3; parameters: Protein purification of both isoforms of full length SMYD3 was performed as previously reported; made in house; method as in Mitchell et al (2016); settings: read-out: Biochemical IC50, ref Mitchell et al (2016); cited from earlier work
SMYD3 [6] = biological target: T2, SMYD3; parameters: endogenous in cells; host or cells: 313 cancer cell lines; method as in Mitchell et al (2016); settings: read-out: Intracellular Methylation IC50; MAP3K2 methylation; ref Mitchell et al (2016); cited from earlier work
[7] = tested on: panel of 240 cancer cell lines; assay: Proliferation in a broad panel of 240 cancer cell lines, 2D culture (Eurofins Panlabs Oncopanel); format: cell-based; settings: for IC50: read-out: anti-proliferative IC50 across the panel of 240 cancer cell lines, 2D culture
Procedure: as §1

SMYD3 [8] = biological target: T2, SMYD3; assay: SMYD3 biochemical methylation assay (3H-SAM, GST-MAP3K2/MEKK2 substrate); parameters: Protein purification of both isoforms of full length SMYD3 was performed as previously reported; made in house; settings: tested in duplicate; read-out: selectivity panel result, SMYD3 (off-target)
Procedure: SMYD3 assays were performed as previously described using N-terminally GST-tagged MAP3K2 protein substrate. […] Reactions were conducted at room temperature with enzyme and inhibitor incubated for 30 minutes before initiating the reaction with substrates. Dose-response curves were tested in duplicate in each experiment. […] Quenched reactions were transferred to a streptavidin-coated flashplate (Perkin Elmer) for capture of the biotinylated peptide. After 2 h incubation at room temperature, the flashplate was washed once with 0.1% Tween-20 and read on a Perkin Elmer Topcount NXT plate reader. Substrate apparent KM values were determined by measuring the initial velocities (v0) in duplicate while varying one substrate at fixed concentration of the second substrate.
Mechanism of inhibition was determined by measuring the inhibitor IC50 values while varying the concentration of one substrate at a fixed concentration of the second substrate equal to its KM value.

several enzymes = tested on: several enzymes; parameters: method as in http://www.chemicalprobes.org; settings: ref http://www.chemicalprobes.org; cited from earlier work
SMYD2 [9] = biological target: T1, SMYD2; settings: read-out: apparent SAM KM (reported); p53 peptide substrate, pH 9.0; 2 (supplemental references); cited from earlier work
[10] = SMYD2, 20 nM SAM, 60 nM H3,1–29 peptide, read-out: Biochemical IC50

T1 sequence (Q9NRG4 whole entry): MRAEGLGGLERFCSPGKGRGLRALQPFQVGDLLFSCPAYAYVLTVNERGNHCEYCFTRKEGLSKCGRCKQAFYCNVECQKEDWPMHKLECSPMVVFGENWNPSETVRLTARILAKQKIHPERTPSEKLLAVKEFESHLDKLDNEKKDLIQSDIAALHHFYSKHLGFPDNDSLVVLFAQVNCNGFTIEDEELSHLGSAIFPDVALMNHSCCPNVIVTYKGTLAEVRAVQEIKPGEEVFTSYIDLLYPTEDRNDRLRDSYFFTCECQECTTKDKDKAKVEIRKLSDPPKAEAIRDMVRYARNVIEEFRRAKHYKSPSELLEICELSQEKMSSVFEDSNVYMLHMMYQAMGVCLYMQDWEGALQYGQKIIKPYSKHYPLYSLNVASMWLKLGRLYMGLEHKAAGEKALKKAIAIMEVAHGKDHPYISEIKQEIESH

IC50 (SMYD2 [1]): 13900 nM
IC50 (SMYD2 [2]; [10]): 51 nM
SMILES: O=C1COc2c(CCNCCN(C(=O)CCNCCc3ccc(Cl)c(Cl)c3)C3CCCCC3)ccc(O)c2N1 [AZ505, reference compound]
IC50 (KYSE-150): 12800 nM

SMILES: CCN(C(=O)CO)[C@H]1CN(/C(=N\C#N)Nc2cccc(OC(F)F)c2)N=C1c1ccc(Cl)c(Cl)c1 [BAY-598]
impact on cell proliferation or induction of apoptosis ([3]; cell lines found to be sensitive to LLY-507): little impact
IC50 ([3]; ref Eggert et al (2016), read-out: Cellular Proliferation IC50): > 20000 nM

SMILES: NC(=O)C1CCN(CC(=O)Nc2ccc(Br)cc2)CC1 [BCI-121]
inhibition of proliferation of several cell lines (several cell lines; at 100 µM): 20–30%
IC50 (several cell lines; ref Peserico et al (2015), read-out: Cellular Proliferation IC50): > 100000 nM
Kd (SMYD3 [4]): 11800 nM

SMILES: O=C1Cc2cc(C(=O)NC3CC4CCC(C3)N4S(=O)(=O)CC3CCN(CCCC(F)(F)F)CC3)c(Cl)cc2N1 (stereo not shown) [EPZ031686]
IC50 (SMYD3 [5]): 3 nM
IC50 (SMYD3 [6]): 36 nM

IC50 (SMYD2 [1]): 31 nM
IC50 [7]: > 10000 nM
mechanism of inhibition with respect to peptide substrate (SMYD2 [2]; 1 nM enzyme, 20 nM SAM, varied H3,1–29): noncompetitive
IC50 (SMYD2 [2]; IC50 at 20 nM SAM, 1 nM SMYD2, 60 nM H3,1-29, 20 nM SAM): 21 ± 2 nM
IC50 (SMYD2 [2]; IC50 at 200 nM SAM, 1 nM SMYD2, 60 nM H3,1-29, 200 nM SAM): 25 ± 5 nM
IC50 (SMYD2 [2]; [10]): 16 nM
Ki (SMYD2 [2]; varied H3,1–29 peptide, Eq 6, read-out: Ki (noncompetitive versus peptide)): 21.5 ± 1.5 nM
IC50 (SMYD3 [8]): > 10000 nM
SMILES: O=C(NC1CN(Cc2cnn(Cc3ccccc3)c2)C1)c1cn(C2CC2)nn1 [EPZ032597]
growth inhibition on repeat testing of hematologic cancer cell lines ([7]; cell lines with lower IC50 in the initial screen): < 50%
IC50 (KYSE-150): > 40000 nM

IC50 [7]: 1000 to 5000 nM
SMILES: Cc1cn(CCN2CCN(c3ccccc3-c3cc(C#N)cc(C(=O)NCCCN4CCCC4)c3)CC2)c2ccccc12 [LLY-507, reference compound]
inhibition of several enzymes (off-target potency) (several enzymes): < 1000 nM
IC50 (KYSE-150): 1800 nM

SMILES: C[S+](CC[C@H](N)C(=O)[O-])C[C@H]1O[C@@H](n2cnc3c(N)ncnc32)[C@H](O)[C@@H]1O (stereo partly drawn) [SAM, S-(5’adenosyl)-L-methionine]
Km (SMYD2 [2]; 1 nM SMYD2, 60 nM H3,1–29, Eq 2, upper limit for the true KM, read-out: apparent KM for SAM): 0.00034 ± 7e-05 µM
Km (SMYD2 [9]): 0.03 to 0.06 µM
